How the values were obtained:
[1] = system: Caco-2 cells; test: Cell cycle analysis (flow cytometry); format: cell-based, human; details: 4, 8, 16 μM, 24 h
Description: Caco-2 cells treated with CA8 at dose of 4, 8, or 16 μM/L for 24 h, they were collected, washed with PBS, and fixed in 70% ethanol overnight. The fixed cells were washed twice with PBS, treated with RNase A (10 mg/mL) and resuspended in 50 μg/mL propidium iodide for staining. Finally, the cell cycle distribution was assessed via flow cytometry (BD Biosciences, CA).

[2] = system: AKT, JNK, and NF-κB signaling pathways and apoptosis-related proteins; test: Western blot of signaling and apoptosis proteins in Caco-2 cells; format: cell-based, human; details: 24 h
Description: The expression of apoptotic proteins and pathways was detected using western blot. Caco-2 cells treated with CA8 at a dose of 4, 8, or 16 μM/L for 24 h were collected and lysed with RIPA lysis buffer for 10 min. The concentration of total proteins was determined using a BCA protein quantitative kit. Total proteins were separated on an SDS-PAGE gel, transferred to PVDF membranes and incubated with 5% skim milk for 2 h. Subsequently, the PVDF membranes were incubated with primary antibodies (AKT 1:2000; Bcl-2 1:2000; Bax 1:5000; caspase-3 1:2,000; caspase-9 1:1000; P-AKT 1:1000; JNK 1:1000; P-JNK 1:1000; IKBα 1:2000; and β-actin 1:100000) at 4°C overnight. The membranes were rinsed three times with TBST and incubated with secondary antibodies (1:5000 dilution) for 2–3 h at room temperature. Finally, proteins were visualized using an ECL chemiluminescent kit (KF001, affinity). In the final step, the ImageJ software was used to analyze the results.

[3] = system: KM mice; test: Acute toxicity experiment; format: in vivo; design: ALT / AST / ALP / CREA / UA / UREA: unit not given here; details: for tolerated dose: male, KM, 8 days; for ALP / ALT / AST / CREA / UA / UREA: serum, KM mice, Mean ± SE, n = 3
Description: All in vivo experimental protocols were approved by the animal care committee of the Southwest Medical University and conducted in strict accordance with the laboratory animal care and use of the adopted guidelines. […] Twenty-one male KM mice were obtained from the Animal Center of Southwest Medical University and subjected to 1 week of acclimatization before the experiment. Then, the mice were randomly divided into the different groups. CA8 was administered via intraperitoneal injection and oral administration to assess its safety. The oral and injection doses were 5, 50, and 300 mg/kg and 2, 10, and 50 mg/kg, respectively. The body weight of all animals was recorded every day, and their blood samples were collected to analyze relevant biochemical indicators on the 8th day of the experiment. The heart, liver, and kidney tissues of the mice were collected, embedded in paraffin, cut into slices, stained with hematoxylin and eosin (HE), and observed under a light microscope to determine potential pathological changes.

[4] = Pharmacokinetics evaluation after gavage; format: in vivo, Sprague Dawley (SD) rats; details: SD rats
Description: After the evaluation of the safety of CA8, 10 male Sprague Dawley (SD) rats were randomly divided into the CA8 and CU groups for the pharmacokinetic test ([Ye et al., 2020]). The rats were subjected to 1 week of adaptation and were fasted for 6 h before the experiment. CA8 (50 mg kg^−1) and CU (50 mg kg^−1) were administered via gavage. Blood samples were collected at 0.03, 0.08, 0.16, 0.25, 0.5, 1, 2, 4, 8 and 12 h and centrifuged at 5,000 rpm for 3 min to obtain the plasma. A mixture of ethyl acetate and methanol was then added to precipitate the proteins and separate the CA8 and CU from the plasma. The samples were then analyzed using HPLC.

[5] = Caco-2, 4, 8, 16 μM, vs control

Structure (SMILES): COc1cc(/C=C2\CN(C(C)C)C/C(=C\c3cc(OC)c(O)c(OC)c3)C2=O)cc(OC)c1O [CA8]
- cell cycle arrest [1]: induced G2/M phase arrest in a concentration-dependent manner
- expression of Bax, caspase-3, and caspase-9 ([2]; Caco-2, 4, 8, 16 μM): increased in a concentration-dependent manner
- expression of P-AKT [2, 5]: inhibited the expression of P-AKT
- expression of P-JNK and IκBα [2, 5]: induced the expression of P-JNK and IκBα in a concentration-dependent manner
- expression of anti-apoptotic protein BCL-2 ([2]; Caco-2, high concentration): significantly inhibited
- liver and kidney histopathology ([3]; different doses, HE staining): no significant pathological damage
- tolerated dose ([3]; mouse, in vivo, ip): ≤ 50 mg/kg
- tolerated dose ([3]; mouse, in vivo, po): up to 300 mg/kg
- morbidity, death, behavior ([3]; mouse, in vivo): No morbidities and deaths occurred
- ALP ([3]; single injection dose 2 mg/kg): 220.33 ± 47.16
- ALT ([3]; single injection dose 2 mg/kg): 59.77 ± 3.00
- AST ([3]; single injection dose 2 mg/kg): 257.50 ± 114.60
- CREA ([3]; single injection dose 2 mg/kg): 17.13 ± 3.30
- UA ([3]; single injection dose 2 mg/kg): 171.93 ± 1.10
- UREA ([3]; single injection dose 2 mg/kg): 6.84 ± 0.29
- ALP ([3]; single injection dose 10 mg/kg): 175.93 ± 95.23
- ALT ([3]; single injection dose 10 mg/kg): 54.87 ± 3.50
- AST ([3]; single injection dose 10 mg/kg): 100.13 ± 28.26
- CREA ([3]; single injection dose 10 mg/kg): 11.60 ± 1.60
- UA ([3]; single injection dose 10 mg/kg): 47.57 ± 14.59
- UREA ([3]; single injection dose 10 mg/kg): 6.84 ± 0.94
- ALP ([3]; single injection dose 50 mg/kg): 226.47 ± 65.98
- ALT ([3]; single injection dose 50 mg/kg): 48.27 ± 2.77
- AST ([3]; single injection dose 50 mg/kg): 141.83 ± 50.47
- CREA ([3]; single injection dose 50 mg/kg): 12.13 ± 1.12
- UA ([3]; single injection dose 50 mg/kg): 55.77 ± 13.47
- UREA ([3]; single injection dose 50 mg/kg): 9.19 ± 1.02
- ALP ([3]; single oral dose 5 mg/kg): 208.57 ± 19.55
- ALT ([3]; single oral dose 5 mg/kg): 49.70 ± 5.25
- AST ([3]; single oral dose 5 mg/kg): 209.40 ± 69.21
- CREA ([3]; single oral dose 5 mg/kg): 10.34 ± 0.87
- UA ([3]; single oral dose 5 mg/kg): 72.27 ± 18.54
- UREA ([3]; single oral dose 5 mg/kg): 6.70 ± 0.12
- ALP ([3]; single oral dose 50 mg/kg): 299.77 ± 72.56
- ALT ([3]; single oral dose 50 mg/kg): 61.30 ± 1.30
- AST ([3]; single oral dose 50 mg/kg): 269.23 ± 67.81
- CREA ([3]; single oral dose 50 mg/kg): 12.50 ± 2.78
- UA ([3]; single oral dose 50 mg/kg): 124.17 ± 19.83
- UREA ([3]; single oral dose 50 mg/kg): 6.53 ± 0.65
- ALP ([3]; single oral dose 300 mg/kg): 266.97 ± 26.38
- ALT ([3]; single oral dose 300 mg/kg): 44.63 ± 11.95
- AST ([3]; single oral dose 300 mg/kg): 277.57 ± 160.53
- CREA ([3]; single oral dose 300 mg/kg): 12.90 ± 1.61
- UA ([3]; single oral dose 300 mg/kg): 128.03 ± 33.61
- UREA ([3]; single oral dose 300 mg/kg): 7.80 ± 1.27
- blood parameters ALT, AST, ALP, CREA, UA, UREA vs control ([3]; single oral and injection doses): no significant difference
- AUC (0-t) / bioavailability relative to CU ([4]; oral): 6.23 fold
- MRT (0-t) / mean residence time relative to CU ([4]; oral): 3.35 fold
- biological half-life relative to CU ([4]; oral): 2.38 fold
- time after dosing until cleared from / still detected in plasma ([4]; oral 50 mg kg^−1): > 8 h
- AUC(0-t) ([4]; oral (gavage) 50 mg kg^−1): 222,562.75 μg/L*min
- CLz ([4]; oral (gavage) 50 mg kg^−1): 190 mL/min/kg
- Vz ([4]; oral (gavage) 50 mg kg^−1): 49.53 L/kg
- Cmax ([4]; male, Sprague Dawley, rat, plasma, oral (gavage) 50 mg kg^−1): 1360 ng/mL
- MRT last ([4]; male, Sprague Dawley, rat, plasma, oral (gavage) 50 mg kg^−1, read-out: MRT(0-t) (converted)): 3.02 h
- Tmax ([4]; male, Sprague Dawley, rat, plasma, oral (gavage) 50 mg kg^−1, read-out: Tmax (converted)): 0.167 h
- half-life ([4]; male, Sprague Dawley, rat, plasma, oral (gavage) 50 mg kg^−1, read-out: t1/2z): 2.98 h

Reference: paper PMC11589483, “Preparation and anti-colon cancer effect of a novel curcumin analogue (CA8): in vivo and in vitro evaluation” (Frontiers in Pharmacology, 2024)
